Source: publication PMC12682123, “Positron emission tomography to assess drug occupancy at peripheral and central incretin receptors” (eBioMedicine, 2025)
Where two headings read alike, the source gives them in different places. No end group written: not given here.

Experiments:
GIPR [1] = experiment: In vivo GIPR drug occupancy in pigs using [^68Ga]S02-GIP-T4 PET; design: species or system pig; conditions: infusion 0.5/50 μg/ml from 30 min before and throughout second scan, n = 1
Description: The study design for GIPR occupancy assessment in pigs was identical to that of GLP-1R, except for the following differences:
The pigs (n = 5) were positioned in the PET/CT scanner in a supine position with either the brain (n = 2) or the pancreas (n = 3) in the FOV when using [^68Ga]S02-GIP-T4. A target dose of 0.5–1 MBq/kg of [^68Ga]S02-GIP-T4, corresponding to a standardised peptide mass dose of 0.1 μg/kg, was administered for both baseline and follow-up scans (Tables 5 and 6). The peptide mass dose was chosen to avoid self-block of the GIPR, and based on previous dose-escalation studies in non-human primates.[16]
SAR441255 was administered subcutaneously at a dose of 100 μg/kg in four pigs, as described above (Table 5). […]
The reconstructed dynamic and whole-body static PET images were analysed using PMOD Base Functionality (PBAS) tool (PMOD Technologies LLC, Zurich, Switzerland) through manual segmentation on trans-axial PET and CT projections. […] The tracer distribution in brain regions was measured by automated segmentation of brain regions. […]
(§2) The convention to the SUV was corrected to the time and administered amount of radioactivity (in MBq) and the weight (in kilograms) of the pig.
The target engagement or drug occupancy for each experiment was calculated by subtracting the SUV in a tissue at the follow-up scan from the SUV in the same tissue at the baseline scan. […]

mice = conditions: central administration; cited from earlier work
Source text: One of the advancements of GLP-1R/GIPR co-activation is potentially the reduced nausea, food aversion, and emesis associated with GLP-1R-based treatment, in addition to an even more increased reduction in appetite and calorie intake.[26]^,[39] These effects may be associated with central activation of GLP-1 receptors by these drugs, and it has been proposed that the concurrent activation of central GIPR by tirzepatide exerts an anti-emetic effect, thereby improving tolerability to GLP-1 receptor–mediated side effects.

human GLP-1R = conditions: 10 nM tracer; for reduction of [^68Ga]Ga-DO3A-Exendin-4 binding: 60 min, RT, p < 0.0001
Description: The receptor specificity assay was repeated four times.
The following procedures were then performed for both assays: After incubation, the sections were washed with cold PBS (3× 1 min), dipped in MilliQ water, and air-dried at 37 °C for 10 min. Finally, the sections were exposed to digital phosphorimager plates (BAS-MS, Fujifilm) overnight (>10 radioactive half-lives) followed by digitalisation using a phosphorimage scanner (Amersham Typhoon FLA 9500 Phosphor Imager, GE) with a 50-μm pixel size for image visualisation. A 10 μl reference droplet, containing a known amount of radioactivity, was incorporated to facilitate the quantification of the autoradiogram.
The pixel values, measured in counts/mm^2, were transformed into Bq/mm^2 using the internal reference.

GLP-1R [2] = system: GLP-1R
Source text: Pigs (n = 9) were positioned in the PET/CT scanner (Discovery MI, GE Healthcare) in a supine position with the brain at the centre of the Field of View (FOV). […] The peptide mass dose was chosen to avoid self-block of the GLP-1R by unlabelled DO3A-Exendin-4 peptide in the formulation and was based on previous dose-escalation studies in non-human primates.[23] A dynamic 60-min PET scan was started at tracer injection, serving as the baseline scan to visualise and quantify GLP-1R expression under normal physiological conditions prior to drug intervention. Following the dynamic scan, a whole-body CT was acquired, immediately followed by a whole-body static PET scan covering the regions from the brain to the bladder.
One experiment used unlabelled DO3A-VS-Exendin-4 (6 μg/kg) as a positive control (Table 4).
The follow-up scan was designed to assess the decreased binding of the tracer to its receptor, which, when compared to the baseline scan, would indicate reduced receptor availability, such as that caused by drug occupancy at the target GLP-1 receptor.
The reconstructed dynamic and whole-body static PET images were analysed using PMOD Base Functionality (PBAS) tool (PMOD Technologies LLC, Zurich, Switzerland) through manual segmentation on trans-axial PET and CT projections. Segmented tissues included the descending aorta, pancreas, liver, spleen, kidneys, and muscle. The tracer distribution in brain regions was measured by automated segmentation of brain regions. This was achieved by fusing the acquired PET dynamic images with the PMOD MRI pig brain atlas. […] CVOs, such as pituitary gland, were not included in the brain atlas and were thus segmented manually.
as §2
The target engagement or drug occupancy for each experiment was calculated by subtracting the SUV in a tissue at the follow-up scan from the SUV in the same tissue at the baseline scan. The difference was divided by the SUV in tissue at baseline and multiplied by 100 to reach the percentage of drug occupancy (Equation 1):Equation 1 Occupancy(%)=SUVbaseline−SUVfollow−up/SUVbaseline×100
All PET measurements were expressed as average SUVmean.

[3] = cited from earlier work
Source text: (§1) This can likely be explained by the lower GLP-1R affinity of tirzepatide, which instead is shifted towards higher affinity to the GIPR.[26]

GIPR [4] = conditions: in vitro; cited from earlier work
Source text: as §1

GLP-1R [5] = conditions: in vitro; cited from earlier work
Source text: as §1

[6] = cited from earlier work; remark: listed apart in the source
Source text: Tirzepatide is the first dual GLP-1R/GIPR agonist approved for the treatment of type 2 diabetes (T2D).[11]

[7] = even at highest doses (450 μg/kg) s.c.
[8] = pre-administration of unlabelled peptide as positive control, 6 μg/kg / 10 μg/kg (Table 4), n = 1

Question: Which results are given for “glucose-dependent insulinotropic polypeptide [GIP (1–42)]”?
Answer: decrease of pancreatic [^68Ga]S02-GIP-T4 signal (GIPR [1]): 24%; food intake (mice): reduced food intake

Question: With “tirzepatide: first dual GLP-1R/GIPR agonist approved for the treatment of type 2 diabetes” as the substance, how does the “competition with [^68Ga]Ga-DO3A-Exendin-4 at GLP-1R” value (human GLP-1R; 10 μM) read?
Answer: competed for an overlapping binding site of GLP-1R

Question: And the “reduction of [^68Ga]Ga-DO3A-Exendin-4 binding” value (human GLP-1R; pre-incubated with 10 μM)?
Answer: 84.9 ± 7%

Question: What about the “occupancy in appetite-regulating brain regions” value (GLP-1R [2]; 50–450 μg/kg s.c., experimental design not aligned with Tmax) of the same substance?
Answer: did not show detectable occupancy

Question: What about the “GLP-1R occupancy in pancreas, did not exceed” value (GLP-1R [2]; [7]) of the same substance?
Answer: ≤ 60%

Question: What about the “GLP-1R occupancy in pituitary, did not exceed” value (GLP-1R [2]; [7]) of the same substance?
Answer: ≤ 60%

Question: What about the “Tmax (in words)” value ([3]; extended plasma half-life, no reference given) of the same substance?
Answer: on the order of days

Question: What about the Tmax ([3]; subcutaneous) of the same substance?
Answer: 8 to 72 h

Question: What about the “affinity to GIPR vs endogenous GIP(1–42)” value (GIPR [4]) of the same substance?
Answer: same affinity

Question: And the “affinity to GLP-1R vs native GLP-1” value (GLP-1R [5])?
Answer: fivefold lower affinity

Question: And the “glucose-lowering effect vs mono GLP-1R agonism” value [6]?
Answer: greater glucose-lowering effect

Question: What about the “weight reduction vs mono GLP-1R agonism” value [6] of the same substance?
Answer: greater weight reduction

Question: With “glucagon-like peptide-1 (HAEGTFTSDVSSYLEGQAAKEFIAWLVKGR; ends and bridges not checked; UniProt P01275 98-127, looked up) [GLP-1, endogenous incretin hormone]” as the substance, how does the food intake (mice) read?
Answer: reduced food intake

Question: With “DO3A-Exendin-4: unlabelled peptide used for blocking, positive control; made by in-house SPPS by Sanofi” as the substance, how does the “reduction of [^68Ga]Ga-DO3A-Exendin-4 binding” value (human GLP-1R; pre-incubated with 1 μM (10 min, PBS + 1% BSA)) read?
Answer: 80 ± 16%

Question: What about the “decrease of [^68Ga]Ga-DO3A-Exendin-4 uptake in pancreas” value (GLP-1R [2]; [8]) of the same substance?
Answer: 73%

Question: And the “decrease of [^68Ga]Ga-DO3A-Exendin-4 uptake in pituitary gland” value (GLP-1R [2]; [8])?
Answer: 53%

Question: And the “reduction of [^68Ga]Ga-DO3A-Exendin-4 uptake in hypothalamic region” value (GLP-1R [2]; [8])?
Answer: 55%

Question: And the “reduction of [^68Ga]Ga-DO3A-Exendin-4 uptake in mammillary body” value (GLP-1R [2]; [8])?
Answer: 60%
